The values below come from patent publication US20260042755A1, “GPR6 INVERSE AGONISTS” (MapLight Therapeutics, Inc., priority 2022, published 2026).

For one assay, the target named is T1, GPR3 (Homo sapiens, UniProt P46089).
T1 construct: expressed in transfected cells; host or cells: CHO cells
The experiment in a line: GPR3 antagonist functional cAMP assay (LANCE Ultra cAMP TR-FRET, CHO cells stably expressing GPR3). The assay is classed as cell-based. Put shortly:
(§1)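 Stable CHO-GPR6 or CHO-GPR3 cells (10,000/well) in Krebs-Ringer buffer with 0.1% BSA and 150 μM Ro 20-1724 were exposed to compounds for 45 min at 37° C (0.1% DMSO). cAMP read by LANCE Ultra TR-FRET; IC50 from 4-parameter fit normalized to DMSO and reference compounds.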
(Changes in cAMP serve as a functional read-out for many G protein-coupled receptors.)

The target of another assay is T2, GPR6 (Homo sapiens, UniProt P46095).
T2 construct: expressed in transfected cells; host or cells: CHO cells
Briefly: GPR6 antagonist functional cAMP assay (LANCE Ultra cAMP TR-FRET, CHO cells stably expressing GPR6). The assay is classed as cell-based. Put shortly:
as §1

Where [1] appears, read: CHO cells stably expressing GPR3, cAMP assay.
Setting [2] is: CHO cells stably expressing GPR6, cAMP assay.
[3] abbreviates: CHO cells stably expressing GPR3, cAMP assay (Example 24).
Setting [4] is: CHO cells stably expressing GPR6, cAMP assay (Example 24).
Setting [5] is: procedure as described in Example 24.

Structures are written as SMILES. pIC50: −log10 of the molar value.

T1 sequence (P46089 whole entry, species assumed): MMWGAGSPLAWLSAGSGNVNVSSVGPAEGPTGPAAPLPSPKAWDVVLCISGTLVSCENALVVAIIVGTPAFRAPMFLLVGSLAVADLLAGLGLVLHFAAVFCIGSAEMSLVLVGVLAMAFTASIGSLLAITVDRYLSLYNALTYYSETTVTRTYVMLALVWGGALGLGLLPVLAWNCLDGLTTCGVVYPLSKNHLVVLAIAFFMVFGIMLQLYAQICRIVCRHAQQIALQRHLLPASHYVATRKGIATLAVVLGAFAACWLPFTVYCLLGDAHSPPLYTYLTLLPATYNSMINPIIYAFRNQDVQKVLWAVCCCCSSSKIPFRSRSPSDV
T2 sequence (P46095 whole entry): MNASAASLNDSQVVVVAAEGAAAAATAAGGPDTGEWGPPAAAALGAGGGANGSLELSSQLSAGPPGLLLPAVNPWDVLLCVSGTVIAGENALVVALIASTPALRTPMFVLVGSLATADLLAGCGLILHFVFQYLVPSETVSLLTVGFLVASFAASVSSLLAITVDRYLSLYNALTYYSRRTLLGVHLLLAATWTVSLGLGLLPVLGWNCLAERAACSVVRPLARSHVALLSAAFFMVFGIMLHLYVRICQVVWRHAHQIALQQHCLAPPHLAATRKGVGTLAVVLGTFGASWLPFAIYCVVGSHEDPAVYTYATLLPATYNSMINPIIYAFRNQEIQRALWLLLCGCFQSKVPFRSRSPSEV

Take `CC(=O)OC1CCN(c2nc3c(nc2-c2cnn(C)c2)CN(Cc2ccccc2)CC3)C1` (stereo not shown) [Compound 495, 1-[6-benzyl-3-(1-methyl-4-pyrazolyl)-5,6,7,8-tetrahydro-1,4,6-triaza-2-naphthyl]-3-pyrrolidinyl acetate]: the pIC50 against GPR3 (setting [1]) is ≤ 4.52; against GPR6 (setting [2]), 4.52 to 6.00.

For the molecule `CC(=O)N1CCc2nc(N3CCC(Cc4ccc(F)cc4F)CC3)c(-c3cnn(C)c3)nc2C1` [Compound 375, 1-(2-{4-[(2,4-difluorophenyl)methyl]piperidin-1-yl}-3-(1-methyl-1H-pyrazol-4-yl)-5H,6H,7H,8H-pyrido[3,4-b]pyrazin-6-yl)ethan-1-one], the pIC50 against GPR3 (procedure of Example 24) is 6.00 to 7.00; on GPR6 (procedure of Example 24), > 7.00.

Take `COC1CCC(c2nc3c(nc2N2CCC(Oc4ccc(F)cc4F)CC2)CCN(C(=O)CO)C3)CC1` (stereo not shown) [Compound 520, 1-{2-[4-(2,4-difluorophenoxy)-1-piperidyl]-3-(4-methoxycyclohexyl)-5,6,7,8-tetrahydro-1,4,6-triaza-6-naphthyl}-2-hydroxy-1-ethanone]: the pIC50 against GPR3 (setting [1]) and at GPR6 (setting [2]) was 4.52 to 6.00 each time.

Regarding `CC(C)(O)[C@@H](O)c1cc2nc(-c3cnn(C(F)F)c3)c(N3CCN(Cc4ccccc4F)CC3)nc2cn1` (single isomer, unassigned) [Compound 686], the pIC50 at GPR3 (procedure of Example 24) was 6.00 to 7.00; at GPR6 (procedure of Example 24), > 7.00.

As for `CCn1cc(-c2nc3c(nc2N2CCC(Oc4ccc(F)cc4F)CC2)CCN(C(=O)C2COCCN2C)C3)cn1` (stereo not shown) [Compound 492, 3-{2-[4-(2,4-difluorophenoxy)piperidin-1-yl]-3-(1-ethyl-1H-pyrazol-4-yl)-5H,6H,7H,8H-pyrido[3,4-b]pyrazine-6-carbonyl}-4-methylmorpholine], the results for the pIC50 at GPR3 (setting [1]) and against GPR6 (setting [2]) were 4.52 to 6.00 and 6.00 to 7.00, respectively.

With `CC(C)(O)C(O)c1cc2nc(-c3cnn(C4CC4)c3)c(N3CCC(Oc4ccc(F)cc4F)CC3)nc2cn1` (single isomer, unassigned) [Compound 590], the pIC50 on GPR3 (setting [1]) is 6.00 to 7.00; against GPR6 (setting [2]) it was > 7.00.

For the molecule `CCOc1ccc(OC2CCN(c3nc4c(nc3-c3cnn(C)c3)CN(C(C)=O)CC4)CC2)c(F)c1` [Compound 504, 1-{2-[4-(4-ethoxy-2-fluorophenoxy)-1-piperidyl]-3-(1-methyl-4-pyrazolyl)-5,6,7,8-tetrahydro-1,4,6-triaza-6-naphthyl}-1-ethanone], the pIC50 at GPR3 (setting [1]) was 4.52 to 6.00; against GPR6 (setting [2]), 6.00 to 7.00.

With `CCn1cc(-c2nc3c(nc2N2CCC(Oc4cc(Cl)ccc4Cl)CC2)CCN(C[C@@H](O)CO)C3)cn1` (single isomer, unassigned) [Compound 408], the values for the pIC50 against GPR3 (setting [3]) and on GPR6 (setting [4]) were 4.52 to 6.00 and 6.00 to 7.00, respectively.

Consider `Cn1cc(-c2nc3cnc(C(N)=O)cc3nc2N2CCC(Oc3ccc(F)cc3F)CC2)cn1` [Compound 330, 2-[4-(2,4-difluorophenoxy)piperidin-1-yl]-3-(1-methyl-1H-pyrazol-4-yl)pyrido[3,4-b]pyrazine-7-carboxamide], for which the values for the pIC50 against GPR3 (procedure of Example 24) and at GPR6 (procedure of Example 24) were 4.52 to 6.00 and 6.00 to 7.00, respectively.

As for `OCCOc1cc2nc(-c3cnn(CF)c3)c(N3CCN(Cc4ccc(F)cc4F)CC3)nc2cn1` [Compound 760, 2-(3-{4-[(2,4-difluorophenyl)methyl]-1-piperazinyl}-2-[1-(fluoromethyl)-4-pyrazolyl]-1,4,6-triaza-7-naphthyloxy)ethanol], the pIC50 against GPR3 (procedure of Example 24) and against GPR6 (procedure of Example 24) was 6.00 to 7.00 in each case.

For `Cn1cc(-c2nc3cc(C(=O)C(C)(C)O)ncc3nc2N2CCN(Cc3ccc(F)cc3F)CC2)cn1` [Compound 563, 1-(3-{4-[(2,4-difluorophenyl)methyl]-1-piperazinyl}-2-(1-methyl-4-pyrazolyl)-1,4,6-triaza-7-naphthyl)-2-hydroxy-2-methyl-1-propanone], the pIC50 was 4.52 to 6.00 on GPR3 (setting [1]) and 6.00 to 7.00 against GPR6 (setting [2]).

For the molecule `CC(=O)N1CCc2nc(N3CCC(Oc4ccc(F)cc4F)CC3)c(-c3cn[nH]c3C)nc2C1` [Compound 43, 1-{2-[4-(2,4-difluorophenoxy)piperidin-1-yl]-3-(5-methyl-1H-pyrazol-4-yl)-5H,6H,7H,8H-pyrido[3,4-b]pyrazin-6-yl}ethan-1-one], the pIC50 against GPR3 (setting [5]) is 4.52 to 6.00; on GPR6 (setting [5]) it was 6.00 to 7.00.

`COc1ccnc(-c2nc3c(nc2N2CCC(Oc4ccc(F)cc4F)CC2)CCN(C(C)=O)C3)n1` [Compound 56, 1-{2-[4-(2,4-difluorophenoxy)piperidin-1-yl]-3-(4-methoxypyrimidin-2-yl)-5H,6H,7H,8H-pyrido[3,4-b]pyrazin-6-yl}ethan-1-one]: the values for the pIC50 against GPR3 (setting [3]) and against GPR6 (setting [4]) were 6.00 to 7.00 and 4.52 to 6.00, respectively.

Regarding `N#CN1CCc2nc(N3CCC(Oc4ccc(F)cc4F)CC3)c(-c3ccc(F)c(N)n3)nc2C1` [Compound 671, 6-{6-cyano-2-[4-(2,4-difluorophenoxy)-1-piperidyl]-5,6,7,8-tetrahydro-1,4,6-triaza-3-naphthyl}-3-fluoro-2-pyridylamine], the pIC50 is 4.52 to 6.00 against GPR3 (procedure of Example 24) and > 7.00 on GPR6 (procedure of Example 24).

On to `CCOc1ccc(CN2CCN(c3nc4c(nc3-c3cnn(C)c3)CN(C(C)=O)CC4)CC2)c(F)c1` [Compound 362, 1-(2-{4-[(4-ethoxy-2-fluorophenyl)methyl]piperazin-1-yl}-3-(1-methyl-1H-pyrazol-4-yl)-5H,6H,7H,8H-pyrido[3,4-b]pyrazin-6-yl)ethan-1-one], for which the pIC50 against GPR3 (procedure of Example 24) and against GPR6 (procedure of Example 24) was 4.52 to 6.00 throughout.

Regarding `N#Cc1cc2nc(-c3cnn(CF)c3)c(N3CCN(Cc4ccc(F)cc4F)CC3)nc2cn1` [Compound 793, 3-{4-[(2,4-difluorophenyl)methyl]-1-piperazinyl}-2-[1-(fluoromethyl)-4-pyrazolyl]-1,4,6-triaza-7-naphthonitrile], the pIC50 at GPR3 (procedure of Example 24) and on GPR6 (procedure of Example 24) was 4.52 to 6.00 in each case.

`CC(C)(O)C(C)(O)c1cc2nc(N3CCC(Oc4ccc(F)cc4F)CC3)c(-c3cnn(C4CC4)c3)nc2cn1` (stereo not shown) [Compound 632, 2-{3-(1-cyclopropyl-4-pyrazolyl)-2-[4-(2,4-difluorophenoxy)-1-piperidyl]-1,4,6-triaza-7-naphthyl}-3-methyl-2,3-butanediol]: the pIC50 against GPR3 (procedure of Example 24) is 4.52 to 6.00; against GPR6 (procedure of Example 24) it was 6.00 to 7.00.

`COc1cccc(-c2nc3cnccc3nc2N2CCN(Cc3ccc(S(C)(=O)=O)cc3F)CC2)n1` [Compound 29, 1-[(2-fluoro-4-methanesulfonylphenyl)methyl]-4-[3-(6-methoxypyridin-2-yl)pyrido[3,4-b]pyrazin-2-yl]piperazine]: the results for the pIC50 against GPR3 (setting [5]) and against GPR6 (setting [5]) were 6.00 to 7.00 and 4.52 to 6.00, respectively.

For `CNc1cncc(-c2nc3c(nc2N2CCC(Oc4ccc(F)cc4F)CC2)CCN(C(C)=O)C3)n1` [Compound 329, 1-{2-[4-(2,4-difluorophenoxy)piperidin-1-yl]-3-[6-(methylamino)pyrazin-2-yl]-5H,6H,7H,8H-pyrido[3,4-b]pyrazin-6-yl}ethan-1-one], the values for the negative-log IC50 (pIC50) against GPR3 (procedure of Example 24) and against GPR6 (procedure of Example 24) were 6.00 to 7.00 and > 7.00, respectively.

Turning to `CC(=O)N1CCc2nc(N3CCC(Oc4ccc(F)cc4F)CC3)c(-c3cnn(CC#N)c3)nc2C1` [Compound 81, 2-(4-{6-acetyl-2-[4-(2,4-difluorophenoxy)piperidin-1-yl]-5H,6H,7H,8H-pyrido[3,4-b]pyrazin-3-yl}-1H-pyrazol-1-yl)acetonitrile], the pIC50 is 4.52 to 6.00 on GPR3 (setting [3]) and 6.00 to 7.00 against GPR6 (setting [4]).

Turning to `CCn1cc(-c2nc3c(nc2N2CCC(Oc4ccc(F)cc4F)CC2)CCN(S(N)(=O)=O)C3)cn1` [Compound 478, 2-(4-(2,4-difluorophenoxy)piperidin-1-yl)-3-(1-ethyl-1H-pyrazol-4-yl)-7,8-dihydropyrido[3,4-b]pyrazine-6(5H)-sulfonamide], the pIC50 on GPR3 (setting [3]) was 4.52 to 6.00; against GPR6 (setting [4]), 6.00 to 7.00.

`CC(C)(O)C(=O)c1cc2nc(N3CCN(Cc4ccccc4F)CC3)c(-c3cnn(C(F)F)c3)nc2cn1` [Compound 618, 1-{3-[1-(difluoromethyl)-4-pyrazolyl]-2-{4-[(o-fluorophenyl)methyl]-1-piperazinyl}-1,4,6-triaza-7-naphthyl}-2-hydroxy-2-methyl-1-propanone]: the pIC50 against GPR3 (procedure of Example 24) was 4.52 to 6.00; at GPR6 (procedure of Example 24), 6.00 to 7.00.

`CC(C)(O)[C@H](O)c1cc2nc(-c3cnn(C4CC4)c3)c(N3CCN(Cc4ccccc4F)CC3)nc2cn1` (single isomer, unassigned) [Compound 781]: the negative logarithm of the IC50 (pIC50) against GPR3 (procedure of Example 24) was 4.52 to 6.00; against GPR6 (procedure of Example 24) it was 6.00 to 7.00.

Regarding `Cn1cc(-c2nc3cnc([C@H](O)C(C)(C)O)cc3nc2N2CCC(Oc3ccc(F)cc3F)CC2)cn1` (single isomer, unassigned) [Compound 378, (Rel-S)-1-(2-(4-(2,4-difluorophenoxy)piperidin-1-yl)-3-(1-methyl-1H-pyrazol-4-yl)pyrido[3,4-b]pyrazin-7-yl)-2-methylpropane-1,2-diol], the pIC50 is 4.52 to 6.00 on GPR3 (setting [3]) and 6.00 to 7.00 on GPR6 (setting [4]).

On to `CC(=O)N1CCc2nc(N3CCC(Oc4ccc(F)cc4F)CC3)c(-c3cnc4n3CCNC4)nc2C1` [Compound 24, 1-(2-(4-(2,4-difluorophenoxy)piperidin-1-yl)-3-(5,6,7,8-tetrahydroimidazo[1,2-a]pyrazin-3-yl)-7,8-dihydropyrido[3,4-b]pyrazin-6(5H)-yl)ethan-1-one], for which the results for the pIC50 on GPR3 (setting [5]) and against GPR6 (setting [5]) were 6.00 to 7.00 and 4.52 to 6.00, respectively.

Regarding `Cn1cc(-c2nc3cnc(C(C)(O)CO)cc3nc2N2CCC(Oc3ccc(F)cc3F)CC2)cn1` (stereo not shown) [Compound 556, 2-{2-[4-(2,4-difluorophenoxy)-1-piperidyl]-3-(1-methyl-4-pyrazolyl)-1,4,6-triaza-7-naphthyl}-1,2-propanediol], the results for the pIC50 against GPR3 (setting [1]) and against GPR6 (setting [2]) were 4.52 to 6.00 and 6.00 to 7.00, respectively.

The term pIC50 denotes the IC50 on a negative log10 scale, so that one unit is a factor of ten.
